Measurements reported in patent publication US10028961B2, “Therapeutically active compounds and their methods of use” (AGIOS PHARMACEUTICALS, INC., priority 2013, dated 2018).
Read-outs that look alike come from different tables or passages of the source.

Columns and labels:
[1] = biological target: IDH1 wt/IDH1 R132H heterodimer (Homo sapiens (Human), UniProt O75874, R132H); assay: In vitro assay for IDH1m R132H inhibitors, IDH1 wt/IDH1 R132H heterodimer, NADPH depletion (diaphorase/resazurin); format: biochemical
IDH1 wt/IDH1 R132H heterodimer, sequence (O75874 whole entry R132H): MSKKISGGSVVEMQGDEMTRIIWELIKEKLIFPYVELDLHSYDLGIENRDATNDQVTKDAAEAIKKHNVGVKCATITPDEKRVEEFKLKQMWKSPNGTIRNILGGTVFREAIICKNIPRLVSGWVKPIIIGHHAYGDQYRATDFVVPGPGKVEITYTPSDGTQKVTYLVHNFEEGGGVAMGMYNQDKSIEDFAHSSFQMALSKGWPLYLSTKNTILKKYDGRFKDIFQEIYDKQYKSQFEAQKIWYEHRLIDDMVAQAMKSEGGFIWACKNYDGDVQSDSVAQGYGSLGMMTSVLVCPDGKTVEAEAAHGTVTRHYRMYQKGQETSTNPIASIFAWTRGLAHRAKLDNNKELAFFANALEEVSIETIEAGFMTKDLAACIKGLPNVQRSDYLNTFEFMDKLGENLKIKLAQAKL
IDH1 wt/IDH1 R132H heterodimer, sequence (O75874 whole entry, stated change not applied): as the sequence (O75874 whole entry R132H) above, with H132R counted along it
Summary of the method: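 Read-out is NADPH left after α-KG reduction to 2-HG, measured via resorufin fluorescence after 5 min diaphorase/resazurin step at 25° C. Enzyme is sf9-expressed IDH1wt-his/IDH1R132H-flag heterodimer, pre-incubated 1 hr at room temperature with compound and cofactor. IC50s from DMSO stocks diluted 1:50.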

IDH2 R140Q = IDH2 R140Q (Homo sapiens (Human), UniProt P48735, R140Q); assay: In vitro assay for IDH2m R140Q inhibitors, cofactor depletion assay; format: biochemical; settings: IDH2 R140Q enzyme
IDH2 R140Q, sequence (P48735 40-452 R140Q): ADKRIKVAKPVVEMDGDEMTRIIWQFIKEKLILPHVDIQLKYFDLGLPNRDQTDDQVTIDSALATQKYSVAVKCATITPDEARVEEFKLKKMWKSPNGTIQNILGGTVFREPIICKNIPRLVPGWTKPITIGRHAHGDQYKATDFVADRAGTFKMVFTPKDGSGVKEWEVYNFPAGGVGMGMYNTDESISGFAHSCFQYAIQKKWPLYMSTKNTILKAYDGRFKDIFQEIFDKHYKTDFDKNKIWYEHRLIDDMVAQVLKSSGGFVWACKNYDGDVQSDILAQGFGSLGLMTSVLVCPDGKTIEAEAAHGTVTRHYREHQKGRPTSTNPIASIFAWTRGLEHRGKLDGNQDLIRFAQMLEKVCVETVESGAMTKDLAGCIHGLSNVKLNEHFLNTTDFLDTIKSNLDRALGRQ
Excerpt: The following describes the experimental procedures used to obtain data on column 7 of Table 4.
The reaction is terminated by the addition of a second enzyme, diaphorase, and a corresponding substrate, resazurin. Diaphorase reduces resazurin to the highly fluorescent resorufin with the concomitant oxidation of NADPH to NADP, both halting the IDH2 reaction by depleting the available cofactor pool and facilitating quantitation of the amount of cofactor remaining after a specific time period through quantitative production of an easily detected fluorophore.
The test compound is then incubated for one hour at room temperature with the enzyme; before starting the IDH2 reaction with the addition of 10 μl of substrate mix containing 4 μM NADPH and 1.6 mM α-KG in the buffer described above. After a further 16 hours of incubation at room temperature, the reaction is halted and the remaining NADPH measured through conversion of resazurin to resorufin by the addition of 25 μl Stop Mix (36 μg/ml diaphorase enzyme and 60 μM resazurin; in buffer).

[2] = system: U87MG pLVX-IDH2 R140Q-neo cells; assay: U87MG pLVX-IDH2 R140Q-neo cell based assay, 2-HG by LC-MS; settings: Homo sapiens, U-87 MG
[3] = system: Neurosphere cells (TS603); assay: Cellular assay for IDH1m R132H inhibitors, 2-HG by LC-MS in neurosphere cells (TS603); format: cell-based; settings: 2-HG in media at 48 hours
Experimental: Cellular Assay for IDH1m R132H Inhibitors.
The following describes the experimental procedures that can be used to obtain data in column 4 of Table 5.
Neurosphere cells (TS603) are grown at 37 C in 5% CO2 in Stem Cell Technologies NeuroCult™ NS-A media supplemented with 1% Primocin, 1% Normocin, 0.0002% Heparin, 20 ng/mL EGF and 10 ng/mL bFGF. Cells are harvested, pelleted and resuspended in Accumax for cell dissociation and counting. Cells are counted and then resuspended in NeuroCult media with 2× heparin, EGF and bFGF at 4 million cells/10 mL media. 100 μl of cell solution are plated in each well of a 96 well with the exception of columns 1 and 12. Columns 1 and 12 contain 200 μL PBS. Compound dose responses are set up at a 2× concentration in Neurocult media without heparin, EGF and bFGF. The final concentration of DMSO is 0.25%. DMSO only control wells are plated in row H. The plates are then placed in the incubator for 48 hours. At 48 hours, 100 μl of media is removed from each well and analyzed by LC-MS for 2-HG concentrations. The cell plate is placed back in the incubator for another 24 hours. At 72 hours post compound addition, 10 mL/plate of Promega Cell Titer Glo reagent is thawed and mixed. The cell plate is removed from the incubator and allowed to equilibrate to room temperature. Then 100 μl of Promega Cell Titer Glo reagent is added to each well of media. The cell plate is then placed on an orbital shaker for 10 minutes and then allowed to sit at room temperature for 20 minutes. The plate is then read for luminescence with an integration time of 500 ms.

[4] = IDH1 wt/IDH1 R132H heterodimer, 300 μM NADP (saturated), read-out: IDH1 wt/R132H NADPH/NADP IC50 saturated
[5] = IDH1 wt/R132H heterodimer, NADPH/NADP, not saturated, read-out: IDH1 wt/R132H NADPH/NADP IC50 not saturated

SMILES	IC50 [1, 4] [nM]	IC50 (IDH2 R140Q) [nM]	IC50 [2] [nM]	IC50 [3] [nM]	IC50 [1, 5] [nM]
Fc1cc(F)cc(Nc2nc(N[C@@H]3CCC(F)(F)C3)nc(-c3cncc(C(F)(F)F)n3)n2)c1 [Compound 369]	< 50	< 50	< 50	< 50	–
Fc1ccc([C@H]2C[C@H](Nc3nc(NC4CCC(F)(F)C4)nc(-c4cccc(C(F)(F)F)n4)n3)C2)cc1 (some centres unmarked) [Compound 230]	–	< 50	< 50	< 50	< 50
C[C@@H](Nc1nc(Nc2ccnc(-c3ccc(C#N)cc3)c2)nc(-c2cccc(C(F)(F)F)n2)n1)C(F)(F)F [Compound 383]	100 to 1000	< 50	< 50	< 50	–
CC[C@H](Nc1nc(N[C@@H](CC)C(F)(F)F)nc(-n2ccc(C(F)(F)F)n2)n1)C(F)(F)F [Compound 363]	< 50	50 to 100	50 to 100	< 50	–
FC1(F)CCC(Nc2nc(NC3CCC(F)(F)C3)nc(-c3nc(C(F)(F)F)cs3)n2)C1 (centres unmarked) [Compound 148]	–	< 50	< 50	< 50	< 50
C[C@@H](Nc1nc(Nc2ccnc(-c3ccccc3)c2)nc(-c2cccc(C(F)(F)F)n2)n1)C(F)(F)F [Compound 359]	< 50	< 50	< 50	< 50	–
C[C@H](Nc1nc(Nc2ccnc(C3(C#N)CC3)c2)nc(-c2cccc(C(F)(F)F)n2)n1)C(F)(F)F [Compound 351]	< 50	< 50	< 50	< 50	–
C[C@@H](Nc1nc(N[C@H](C)C2CC2)nc(-c2cccc(C(F)F)n2)n1)C1CC1 [Compound 198]	–	< 50	< 50	< 50	< 50
CC(F)(F)c1cncc(-c2nc(NC3CCC(F)(F)CC3)nc(NC3CCC(F)(F)CC3)n2)n1 [Compound 374]	50 to 100	< 50	< 50	< 50	–
CC(F)(F)c1cc(Nc2nc(N[C@H]3CCC(F)(F)C3)nc(-c3cccc(C(F)(F)F)n3)n2)ccn1 [Compound 360]	< 50	< 50	< 50	< 50	–
CC(F)(F)c1csc(-c2nc(NC3CCC(F)(F)CC3)nc(NC3CCC(F)(F)CC3)n2)n1 [Compound 357]	50 to 100	< 50	< 50	< 50	–
CC(F)(F)c1cncc(-c2nc(NC3CCC(F)(F)C3)nc(NC3CCC(F)(F)C3)n2)n1 (centres unmarked) [Compound 370]	< 50	< 50	< 50	< 50	–
FC1(F)CC2(CC(Nc3nc(Nc4ccnc(C(F)(F)F)c4)nc(-c4cncc(C(F)(F)F)n4)n3)C2)C1 [Compound 380]	100 to 1000	< 50	< 50	< 50	–
FC(F)(F)c1cc(Nc2nc(NCC3CC3)nc(-c3cncc(C(F)(F)F)n3)n2)ccn1 [Compound 387]	100 to 1000	< 50	< 50	< 50	–
Fc1cc(F)cc(Nc2nc(NC3CCC(F)(F)C3)nc(-c3cncc(Cl)n3)n2)c1 (centres unmarked) [Compound 109]	–	< 50	< 50	< 50	< 50
C[C@@H](Nc1nc(Nc2ccnc(-c3ccc(Cl)cc3)c2)nc(-c2cccc(C(F)(F)F)n2)n1)C(F)(F)F [Compound 364]	50 to 100	< 50	< 50	< 50	–
CC(F)(F)c1cccc(-c2nc(Nc3ccnc(C4(C#N)CC4)c3)nc(NC3CC(F)(F)C3)n2)n1 [Compound 372]	< 50	< 50	< 50	< 50	–
C[C@@H](Nc1nc(Nc2ccnc(-c3ccc(F)cc3)c2)nc(-c2cccc(C(F)(F)F)n2)n1)C(F)(F)F [Compound 371]	< 50	< 50	< 50	< 50	–

SMILES	IC50 [1, 4] [nM]	IC50 (IDH2 R140Q) [nM]	IC50 [2] [nM]	IC50 [3] [nM]	IC50 [1, 5] [nM]
FC1(F)CCC(Nc2nc(Nc3ccnc(C(F)(F)F)c3)nc(-c3nc(C(F)(F)F)cs3)n2)C1 (centres unmarked) [Compound 353]	< 50	< 50	< 50	< 50	–
FC1(F)CC[C@@H](Nc2nc(N[C@H]3CCC(F)(F)C3)nc(-c3cncc(C(F)(F)F)n3)n2)C1 [Compound 399]	< 50	< 50	< 50	< 50	–
CC(F)(F)c1cncc(-c2nc(NC3CC(F)(F)C3)nc(NC3CC(F)(F)C3)n2)n1 [Compound 366]	< 50	< 50	< 50	< 50	–
FC(F)(F)c1cc(Nc2nc(NCC3CC3)nc(-c3nc(C(F)(F)F)cs3)n2)ccn1 [Compound 379]	50 to 100	< 50	< 50	< 50	–
C[C@H](Nc1nc(Nc2ccnc(C(F)(F)F)c2)nc(-n2ccc(C(F)(F)F)n2)n1)C(F)(F)F [Compound 356]	< 50	< 50	< 50	< 50	–
FC1(F)CCC(Nc2nc(NC3CCC(F)(F)C3)nc(-c3cncc(Cl)n3)n2)C1 (centres unmarked) [Compound 129]	–	< 50	< 50	< 50	< 50
N#Cc1cc(Nc2nc(NC3CCC(F)(F)CC3)nc(-c3cccc(C(F)(F)F)n3)n2)ccn1 [Compound 204]	–	< 50	< 50	< 50	< 50
C[C@@H](Nc1nc(Nc2ccnc(C3(C#N)CC3)c2)nc(-c2cccc(C(C)(F)F)n2)n1)C(F)(F)F [Compound 348]	< 50	< 50	< 50	< 50	–
CC(F)(F)c1cc(Nc2nc(NC3CCC(F)(F)CC3)nc(-c3cccc(C(F)(F)F)n3)n2)ccn1 [Compound 361]	50 to 100	< 50	< 50	< 50	–
FC1(F)CCC(Nc2nc(NC3CCC(F)(F)C3)nc(-c3cccc(C(F)(F)F)n3)n2)CC1 (centres unmarked) [Compound 395]	< 50	< 50	< 50	< 50	–
N#CC1(c2cc(Nc3nc(N[C@H]4CCC(F)(F)C4)nc(-c4ccnc(C(F)(F)F)n4)n3)ccn2)CC1 [Compound 341]	100 to 1000	< 50	< 50	< 50	–
N#CC1(c2cc(Nc3nc(N[C@H]4CCC(F)(F)C4)nc(-c4cncc(C(F)(F)F)n4)n3)ccn2)CC1 [Compound 373]	< 50	< 50	< 50	< 50	–
FC1(F)CC[C@H](Nc2nc(N[C@H]3CCC(F)(F)C3)nc(-c3cncc(C(F)(F)F)n3)n2)C1 [Compound 406]	< 50	< 50	< 50	< 50	–
FC1(F)CCC(Nc2nc(NC3CCC(c4ccccc4)C3)nc(-c3cccc(C(F)(F)F)n3)n2)C1 (centres unmarked) [Compound 184]	–	< 50	< 50	< 50	< 50
CC[C@H](Nc1nc(N[C@@H](CC)C(F)(F)F)nc(-c2cncc(C(F)(F)F)n2)n1)C(F)(F)F [Compound 339]	< 50	< 50	< 50	< 50	–
Fc1cc(F)cc(Nc2nc(NC3CCC(F)(F)CC3)nc(-c3cncc(C(F)(F)F)n3)n2)c1 [Compound 367]	< 50	< 50	< 50	< 50	–
C[C@@H](Nc1nc(N[C@H](C)C(F)(F)F)nc(-c2ccnc(C(F)(F)F)n2)n1)C(F)(F)F [Compound 344]	50 to 100	50 to 100	50 to 100	< 50	–
